Laboratory results from patent US11623919B2, “Heterocyclic P2X7 antagonists” (AXXAM S.P.A., priority 2017, dated 2023).

Columns and labels:
Experiment in all cases: Screen Quest Fluo-8 No Wash Calcium Assay (Bz-ATP evoked Ca2+ influx, FLIPR)
Format in all cases: cell-based
[1] = target: T1, P2X7 receptor (Mus musculus, UniProt Q9Z1M0); conditions: mP2X7; HEK-293 cells stably transfected with P2X7 receptor, Bz-ATP at EC80, Fluo-8 NW; potency ranges A-D
T1 construct: mP2X7 (IC50; nM); other: mP2X7; HEK-293 cells stably transfected with P2X7 receptor, Bz-ATP at EC80, Fluo-8 NW; potency
T1 sequence (Q9Z1M0 1-595): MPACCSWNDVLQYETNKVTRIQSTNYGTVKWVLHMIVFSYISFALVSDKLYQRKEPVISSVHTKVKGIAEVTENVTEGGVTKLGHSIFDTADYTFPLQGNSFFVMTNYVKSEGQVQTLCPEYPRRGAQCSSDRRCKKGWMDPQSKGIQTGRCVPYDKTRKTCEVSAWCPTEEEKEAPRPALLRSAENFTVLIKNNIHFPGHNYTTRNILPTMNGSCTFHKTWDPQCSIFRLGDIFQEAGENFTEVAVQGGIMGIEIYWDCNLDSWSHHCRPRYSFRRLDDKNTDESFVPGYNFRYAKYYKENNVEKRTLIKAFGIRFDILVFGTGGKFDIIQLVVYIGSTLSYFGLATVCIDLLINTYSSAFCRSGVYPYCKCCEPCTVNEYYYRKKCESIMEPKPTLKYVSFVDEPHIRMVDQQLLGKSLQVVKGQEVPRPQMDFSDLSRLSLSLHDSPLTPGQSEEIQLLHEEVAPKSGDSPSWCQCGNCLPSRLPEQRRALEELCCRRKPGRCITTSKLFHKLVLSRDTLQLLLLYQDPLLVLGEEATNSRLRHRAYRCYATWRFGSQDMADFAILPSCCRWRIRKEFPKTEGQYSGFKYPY
Procedure, shortened: (§1)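 Compounds were added to Fluo-8-loaded P2X7-transfected HEK-293 cells 5 min before an EC80 Bz-ATP challenge, and Ca2+ influx was then recorded for 3 min. Buffer held 0.3 mM Ca2+ and no Mg2+. Inhibition was normalised to A438079, giving IC50 values.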

[2] = target: T2, P2X7 receptor (Rattus norvegicus, UniProt Q64663); conditions: rP2X7; HEK-293 cells stably transfected with P2X7 receptor, Bz-ATP at EC80, Fluo-8 NW; potency ranges A-D
T2 construct: rP2X7 (IC50; nM); other: rP2X7; HEK-293 cells stably transfected with P2X7 receptor, Bz-ATP at EC80, Fluo-8 NW; potency
T2 sequence (Q64663 1-595): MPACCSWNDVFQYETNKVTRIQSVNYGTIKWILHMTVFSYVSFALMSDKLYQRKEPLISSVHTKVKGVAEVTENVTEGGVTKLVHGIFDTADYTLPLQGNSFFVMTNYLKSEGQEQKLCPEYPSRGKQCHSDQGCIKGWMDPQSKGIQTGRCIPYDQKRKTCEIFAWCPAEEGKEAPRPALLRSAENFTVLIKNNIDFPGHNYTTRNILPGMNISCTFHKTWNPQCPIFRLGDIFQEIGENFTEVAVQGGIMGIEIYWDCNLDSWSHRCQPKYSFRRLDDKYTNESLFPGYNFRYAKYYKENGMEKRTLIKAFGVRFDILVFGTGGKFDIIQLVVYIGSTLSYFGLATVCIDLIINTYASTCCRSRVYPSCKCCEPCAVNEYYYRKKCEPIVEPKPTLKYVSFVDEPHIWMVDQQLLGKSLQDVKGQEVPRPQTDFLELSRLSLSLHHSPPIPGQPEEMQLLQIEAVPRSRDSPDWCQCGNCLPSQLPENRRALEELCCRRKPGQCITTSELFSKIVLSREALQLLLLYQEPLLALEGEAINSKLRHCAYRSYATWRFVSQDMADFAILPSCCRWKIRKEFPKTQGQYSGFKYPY
Procedure, shortened: as §1

[3] = target: T3, P2X7 receptor (Homo sapiens, UniProt Q99572); design: hP2X7 (IC50; nM); other: hP2X7; HEK-293 cells stably transfected with P2X7 receptor, Bz-ATP at EC80, Fluo-8 NW; potency; conditions: hP2X7; HEK-293 cells stably transfected with P2X7 receptor, Bz-ATP at EC80, Fluo-8 NW; potency ranges A-D
T3 sequence (Q99572 1-595): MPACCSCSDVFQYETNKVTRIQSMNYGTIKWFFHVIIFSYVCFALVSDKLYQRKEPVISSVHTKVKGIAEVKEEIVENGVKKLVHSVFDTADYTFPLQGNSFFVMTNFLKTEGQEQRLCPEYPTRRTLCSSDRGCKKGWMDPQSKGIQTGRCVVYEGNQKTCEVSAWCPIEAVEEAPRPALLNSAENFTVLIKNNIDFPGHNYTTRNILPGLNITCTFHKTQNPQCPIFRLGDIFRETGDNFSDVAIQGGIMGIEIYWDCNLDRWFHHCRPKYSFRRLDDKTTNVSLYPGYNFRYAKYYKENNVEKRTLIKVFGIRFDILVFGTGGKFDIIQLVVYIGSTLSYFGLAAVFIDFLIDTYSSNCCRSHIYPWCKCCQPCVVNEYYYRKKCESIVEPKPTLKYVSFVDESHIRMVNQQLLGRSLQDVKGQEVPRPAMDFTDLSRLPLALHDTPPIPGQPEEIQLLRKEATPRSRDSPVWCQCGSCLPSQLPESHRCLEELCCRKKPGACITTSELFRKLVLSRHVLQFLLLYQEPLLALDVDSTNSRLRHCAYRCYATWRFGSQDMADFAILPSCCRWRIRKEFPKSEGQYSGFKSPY
Procedure, shortened: as §1

Q: With `O=c1onc(Cc2cccc(C(F)(F)F)c2Cl)n1CC1CCCCC1` [Example 113, 3-{[2-chloro-3-(trifluoromethyl)phenyl]methyl}-4-(cyclohexylmethyl)-4,5-dihydro-1,2,4-oxadiazol-5-one] as the compound, how does the IC50 [1] read?
A: 1000 to 10000 nM

Q: What about the IC50 [2] of the same compound?
A: 1000 to 10000 nM

Q: And the IC50 [3]?
A: 1000 to 10000 nM

Q: Which results are given for `O=c1onc(Cc2ccc(F)cc2)n1Cc1ccc(F)cc1` [Example 54, bis[(4-fluorophenyl)methyl]-4,5-dihydro-1,2,4-oxadiazol-5-one]?
A: IC50 [1]: > 10000 nM; IC50 [2]: > 10000 nM; IC50 [3]: 1000 to 10000 nM

Q: Which results are given for `CC(C)Cn1c(Cc2c(F)cccc2Cl)noc1=O` [Example 178, 3-[(2-chloro-6-fluorophenyl)methyl]-4-(2-methylpropyl)-4,5-dihydro-1,2,4-oxadiazol-5-one]?
A: IC50 [1]: > 10000 nM; IC50 [2]: > 10000 nM; IC50 [3]: 1000 to 10000 nM

Q: With `O=c1onc(CN2CCCC(F)(F)C2)n1Cc1c(F)cccc1Cl` [Example 224, 4-[(2-chloro-6-fluorophenyl)methyl]-3-[(3,3-difluoropiperidin-1-yl)methyl]-4,5-dihydro-1,2,4-oxadiazol-5-one] as the compound, how does the IC50 [1] read?
A: 200 to 1000 nM

Q: What about the IC50 [2] of the same compound?
A: 200 to 1000 nM

Q: What about the IC50 [3] of the same compound?
A: 200 to 1000 nM

Q: Which IC50 [1] does the source give for `O=c1onc(Cc2cccc(C(F)(F)F)c2Cl)n1Cc1c(F)cccc1Cl` [Example 16, 3-{[2-chloro-3-(trifluoromethyl)phenyl]methyl}-4-[(2-chloro-6-fluorophenyl)methyl]-4,5-dihydro-1,2,4-oxadiazol-5-one] here?
A: > 10000 nM

Q: What about the IC50 [2] of the same compound?
A: 1000 to 10000 nM

Q: What about the IC50 [3] of the same compound?
A: 1000 to 10000 nM

Q: With `O=c1onc(CC2CCC(F)(F)CC2)n1CCc1ccccc1` [Example 172, 3-[(4,4-difluorocyclohexyl)methyl]-4-(2-phenylethyl)-4,5-dihydro-1,2,4-oxadiazol-5-one] as the compound, how does the IC50 [1] read?
A: > 10000 nM

Q: What about the IC50 [2] of the same compound?
A: 1000 to 10000 nM

Q: And the IC50 [3]?
A: > 10000 nM

Q: What does the source list for `O=c1onc(Cc2ccc(F)cc2)n1Cc1cccc(C(F)(F)F)c1Cl` [Example 52, 4-{[2-chloro-3-(trifluoromethyl)phenyl]methyl}-3-[(4-fluorophenyl)methyl]-4,5-dihydro-1,2,4-oxadiazol-5-one]?
A: IC50 [1]: > 10000 nM; IC50 [2]: > 10000 nM; IC50 [3]: > 10000 nM

Q: `O=c1onc(Cc2c(F)cccc2Cl)n1Cc1ncccn1` [Example 39, 3-[(2-chloro-6-fluorophenyl)methyl]-4-(pyrimidin-2-ylmethyl)-4,5-dihydro-1,2,4-oxadiazol-5-one] was tested. Which IC50 [1] did it give?
A: > 10000 nM

Q: What about the IC50 [2] of the same compound?
A: > 10000 nM

Q: And the IC50 [3]?
A: > 10000 nM

Q: For `O=c1onc(C(O)c2cccc(C(F)(F)F)c2Cl)n1Cc1c(F)cccc1Cl` (stereo not drawn) [Example 135, 3-{[2-chloro-3-(trifluoromethyl)phenyl](hydroxy)methyl}-4-[(2-chloro-6-fluorophenyl)methyl]-4,5-dihydro-1,2,4-oxadiazol-5-one], which IC50 [1] is on record?
A: > 10000 nM

Q: And the IC50 [2]?
A: > 10000 nM

Q: What about the IC50 [3] of the same compound?
A: 200 to 1000 nM

Q: How did the IC50 [1] turn out when `Cc1ncccc1Cc1noc(=O)n1CC1CCCCC1` [Example 218, 4-(cyclohexylmethyl)-3-[(2-methylpyridin-3-yl)methyl]-4,5-dihydro-1,2,4-oxadiazol-5-one] was run?
A: 1000 to 10000 nM

Q: And the IC50 [2]?
A: 200 to 1000 nM

Q: And the IC50 [3]?
A: 200 to 1000 nM

Q: With `O=c1onc(Cc2c(F)cccc2Cl)n1Cc1ncco1` [Example 32, 3-[(2-chloro-6-fluorophenyl)methyl]-4-(1,3-oxazol-2-ylmethyl)-4,5-dihydro-1,2,4-oxadiazol-5-one] as the compound, how does the IC50 [1] read?
A: > 10000 nM

Q: What about the IC50 [2] of the same compound?
A: > 10000 nM

Q: And the IC50 [3]?
A: > 10000 nM

Q: `O=c1onc(Cc2ccccc2F)n1Cc1c(F)cccc1Cl` [Example 19, 4-[(2-chloro-6-fluorophenyl)methyl]-3-[(2-fluorophenyl)methyl]-4,5-dihydro-1,2,4-oxadiazol-5-one] was tested. Which IC50 [1] did it give?
A: > 10000 nM

Q: What about the IC50 [2] of the same compound?
A: 1000 to 10000 nM

Q: And the IC50 [3]?
A: 1000 to 10000 nM

Q: With `O=c1onc(Cc2cccc(C(F)(F)F)c2Cl)n1CC1CCC(F)(F)CC1` [Example 155, 3-{[2-chloro-3-(trifluoromethyl)phenyl]methyl}-4-[(4,4-difluorocyclohexyl)methyl]-4,5-dihydro-1,2,4-oxadiazol-5-one] as the compound, how does the IC50 [1] read?
A: 200 to 1000 nM

Q: What about the IC50 [2] of the same compound?
A: 200 to 1000 nM

Q: And the IC50 [3]?
A: < 200 nM

Q: Which results are given for `COc1cccc(Cc2noc(=O)n2CC2CCCCC2)c1` [Example 127, 4-(cyclohexylmethyl)-3-[(3-methoxyphenyl)methyl]-4,5-dihydro-1,2,4-oxadiazol-5-one]?
A: IC50 [1]: > 10000 nM; IC50 [2]: > 10000 nM; IC50 [3]: > 10000 nM

Q: Which results are given for `O=c1onc(CN2CCC(F)(F)CC2)n1Cc1ccc(F)cc1` [Example 221, 3-[(4,4-difluoropiperidin-1-yl)methyl]-4-[(4-fluorophenyl)methyl]-4,5-dihydro-1,2,4-oxadiazol-5-one]?
A: IC50 [1]: 1000 to 10000 nM; IC50 [2]: 1000 to 10000 nM; IC50 [3]: > 10000 nM

Q: What does the source list for `Cc1ncccc1Cc1noc(=O)n1CC1CCC(F)(F)CC1` [Example 219, 4-[(4,4-difluorocyclohexyl)methyl]-3-[(2-methylpyridin-3-yl)methyl]-4,5-dihydro-1,2,4-oxadiazol-5-one]?
A: IC50 [1]: 1000 to 10000 nM; IC50 [2]: 1000 to 10000 nM; IC50 [3]: 200 to 1000 nM

Q: With `Cc1ncccc1Cc1noc(=O)n1Cc1ccc(F)cc1` [Example 216, 4-[(4-fluorophenyl)methyl]-3-[(2-methylpyridin-3-yl)methyl]-4,5-dihydro-1,2,4-oxadiazol-5-one] as the compound, how does the IC50 [1] read?
A: > 10000 nM

Q: And the IC50 [2]?
A: 1000 to 10000 nM

Q: And the IC50 [3]?
A: 1000 to 10000 nM

Q: With `CCCCn1c(Cc2c(F)cccc2Cl)noc1=O` [Example 177, 4-butyl-3-[(2-chloro-6-fluorophenyl)methyl]-4,5-dihydro-1,2,4-oxadiazol-5-one] as the compound, how does the IC50 [1] read?
A: > 10000 nM

Q: And the IC50 [2]?
A: 1000 to 10000 nM

Q: What about the IC50 [3] of the same compound?
A: 1000 to 10000 nM

Q: What does the source list for `CC(c1c(F)cccc1Cl)c1noc(=O)n1CC1CCCCC1` (stereo not drawn) [Example 122, 3-[1-(2-chloro-6-fluorophenyl)ethyl]-4-(cyclohexylmethyl)-4,5-dihydro-1,2,4-oxadiazol-5-one]?
A: IC50 [1]: > 10000 nM; IC50 [2]: 1000 to 10000 nM; IC50 [3]: > 10000 nM

Q: How did the IC50 [1] turn out when `O=c1onc(Cc2cccc(Cl)c2Cl)n1Cc1c(F)cccc1Cl` [Example 13, 4-[(2-chloro-6-fluorophenyl)methyl]-3-[(2,3-dichlorophenyl)methyl]-4,5-dihydro-1,2,4-oxadiazol-5-one] was run?
A: 1000 to 10000 nM

Q: What about the IC50 [2] of the same compound?
A: 1000 to 10000 nM

Q: And the IC50 [3]?
A: 1000 to 10000 nM

Q: How did the IC50 [1] turn out when `O=c1onc(Cc2c(F)cccc2Cl)n1CC1CCC2(CC1)OCCO2` [Example 70, 3-[(2-chloro-6-fluorophenyl)methyl]-4-{1,4-dioxaspiro[4.5]decan-8-ylmethyl}-4,5-dihydro-1,2,4-oxadiazol-5-one] was run?
A: 1000 to 10000 nM

Q: What about the IC50 [2] of the same compound?
A: 1000 to 10000 nM

Q: What about the IC50 [3] of the same compound?
A: 200 to 1000 nM
